# According to publication PMC4255642 (Biochemistry, 2014):
# What was measured:
# [1] = tested on: wild-type and mutant membrane-bound F1Fo ATP synthase; format: biochemical; conditions: wild type and six mutants; 150 μM NBD-Cl 1 h, then 4 mM DTT 1 h
# [2] = tested on: F1Fo-bound membranes; assay: Control: protecting ligand without added NBD-Cl, ATPase activity; format: biochemical, Escherichia coli; conditions: MgADP up to 10 mM, Pi up to 50 mM
# [3] = biological target: αT349A mutant membrane-bound F1Fo ATP synthase (Escherichia coli, UniProt P0ABB0+P0ABB4, T349A/Y332W); format: biochemical; conditions: sodium azide 30 min preincubation
# [4] = biological target: αT349D mutant membrane-bound F1Fo ATP synthase (Escherichia coli, UniProt P0ABB0+P0ABB4, T349D/Y332W); format: biochemical; conditions: sodium azide 30 min preincubation
# [5] = biological target: αT349Q mutant membrane-bound F1Fo ATP synthase (Escherichia coli, UniProt P0ABB0+P0ABB4, T349Q/Y332W); format: biochemical; conditions: sodium azide 30 min preincubation
# [6] = biological target: αT349R mutant membrane-bound F1Fo ATP synthase (Escherichia coli, UniProt P0ABB0+P0ABB4, T349R/Y332W); format: biochemical; conditions: sodium azide 30 min preincubation
# [7] = biological target: βR182A mutant membrane-bound F1Fo ATP synthase (Escherichia coli, UniProt P0ABB0+P0ABB4, R183A/Y332W); format: biochemical; conditions: sodium azide 30 min preincubation
# [8] = biological target: αT349R/βR182A double mutant membrane-bound F1Fo ATP synthase (Escherichia coli, UniProt P0ABB0+P0ABB4, R183A/T349R/Y332W); format: biochemical; conditions: sodium azide 30 min preincubation
smiles,measurement,setting,value
"O[C@@H](CS)[C@@H](O)CS (racemic) [DTT, dithiothreitol]",reversal of NBD-Cl inactivation of ATPase activity by DTT,[1],completely restored full activity in all cases
Nc1ncnc2c1ncn2[C@@H]1O[C@H](COP(=O)([O-])OP(=O)([O-])O)[C@@H](O)[C@H]1O.[Mg+2] [MgADP],inhibitory effect of ligand alone on ATPase activity,[2],Neither MgADP (up to 10 mM) nor Pi (up to 50 mM) had any inhibitory effect alone
"O=P(O)(O)O [Pi, inorganic phosphate]",inhibitory effect of ligand alone on ATPase activity,[2],Neither MgADP (up to 10 mM) nor Pi (up to 50 mM) had any inhibitory effect alone
"[N-]=[N+]=[N-].[Na+] [azide, sodium azide]",residual ATPase activity with azide,[3],~53%
same,residual ATPase activity with azide,[4],~90%
same,residual ATPase activity with azide,[5],~90%
same,residual ATPase activity with azide,[6],~40%
same,residual ATPase activity with azide,[7],~72%
same,residual ATPase activity with azide,[8],~21%
